Patent publication US8258158B2 (Hoffmann-La Roche Inc., priority 2009, dated 2012)

Each compound was assayed against T1, human HSL (Homo sapiens, UniProt Q05469) (assay: Human hormone-sensitive lipase (HSL) enzyme inhibition assay (colorimetric, DMPT substrate)). Settings: human full length HSL-His6; 2,3-dimercapto-1-propanol tributyrate substrate; 37° C., 20 minutes; read-out: HSL hum IC50.
T1 construct: overlapping PCR to generate a full length human HSL ORF with a 3′-His6 tag; His6 (C); made in house; host or cells: High 5 insect cells (baculovirus, pFast-BAC)
T1 sequence (Q05469 1-1076): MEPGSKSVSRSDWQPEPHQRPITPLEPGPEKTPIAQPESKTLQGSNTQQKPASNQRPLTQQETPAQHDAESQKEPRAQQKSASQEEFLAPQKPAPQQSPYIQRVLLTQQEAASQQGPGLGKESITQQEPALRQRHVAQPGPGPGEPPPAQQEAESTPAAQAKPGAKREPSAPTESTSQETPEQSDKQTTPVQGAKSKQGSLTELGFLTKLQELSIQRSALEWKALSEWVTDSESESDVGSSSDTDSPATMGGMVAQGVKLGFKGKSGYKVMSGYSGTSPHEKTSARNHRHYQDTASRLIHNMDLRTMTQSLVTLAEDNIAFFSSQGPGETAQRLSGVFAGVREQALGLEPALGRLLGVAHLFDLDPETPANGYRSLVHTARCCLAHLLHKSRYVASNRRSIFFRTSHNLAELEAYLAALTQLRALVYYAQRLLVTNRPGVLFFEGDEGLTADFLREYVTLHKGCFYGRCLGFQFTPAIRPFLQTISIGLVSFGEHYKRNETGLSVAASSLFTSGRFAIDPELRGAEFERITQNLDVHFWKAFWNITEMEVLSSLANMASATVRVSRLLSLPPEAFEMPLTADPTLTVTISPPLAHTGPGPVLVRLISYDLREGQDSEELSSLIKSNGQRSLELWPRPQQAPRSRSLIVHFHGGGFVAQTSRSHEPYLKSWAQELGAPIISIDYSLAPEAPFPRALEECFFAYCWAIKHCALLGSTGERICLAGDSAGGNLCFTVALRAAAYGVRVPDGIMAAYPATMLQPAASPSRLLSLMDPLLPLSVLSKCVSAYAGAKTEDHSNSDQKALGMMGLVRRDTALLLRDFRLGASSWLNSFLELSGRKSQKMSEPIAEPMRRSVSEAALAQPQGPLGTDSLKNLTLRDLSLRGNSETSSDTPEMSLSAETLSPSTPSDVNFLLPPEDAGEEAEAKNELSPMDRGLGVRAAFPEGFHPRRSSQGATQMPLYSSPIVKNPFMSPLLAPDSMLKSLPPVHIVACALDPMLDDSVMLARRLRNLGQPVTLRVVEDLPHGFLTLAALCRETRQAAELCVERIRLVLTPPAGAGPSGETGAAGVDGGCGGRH
Format: biochemical
Protocol: Production of Human Full Length Hormone Sensitive Lipase-His^6:
1) Cloning: cDNA was prepared from commercial human brain polyA+ RNA and used as a template in overlapping PCR to generate a full length human HSL ORF with a 3′-His6 tag. This full length insert was cloned into the pFast-BAC vector and the DNA-sequence of several single clones was verified. DNA from a correct full length clone with the 3′His6 tag was used to transform the E. coli strain DH10BAC. Resulting bacmid DNA was used to generate a titered baculovirus stock for protein generation. The sequence of the encoded HSL conforms to Swissprot entry Q05469, with the additional C-terminal His6-tag.
2) Protein purification: Culture: 5.5 L, High 5 cells expressing human full length HSL-His^6, 48 hr., containing 25 μM E-64. Cell count: […], 90% viable. Cells were thawed. On ice, cells were suspended in Base Buffer containing 10% glycerol, 25 mM Tris-Cl, 300 mM NaCl, 10 mM imidazole, 10 mM 2-mercaptoethanol, 2 μg pepstatin/ml, 2 μg leupeptin/ml, 2 μg antipain/ml, pH 8.0 at 4° C. in a final volume of 475 ml with 3.75×10^7 cells/ml. […] was done at 3×30 sec., Lubrol PX was added to 0.2% final concentration followed by stirring for 15 min. at 4° C. and centrifugation at 25 k×g, 60 min., 4° C. Soluble proteins were mixed with 60 ml of pre-washed and equilibrated Ni-NTA Agarose (Qiagen 30210) followed by tumbling end-over-end, 45 min., 4° C., centrifugation 1000 rpm 5 min and letting resin settle 5 min. Supernatant was removed, the resin washed in the centrifuge vessel using 5 volumes of Base Buffer containing 0.2% Lubrol PX. Centrifugation was done again, then the supernatant discarded. The resin was poured onto a 0.8 μm membrane in a disposable filter unit (Nalge 450-0080), and washed with 5 volumes of Base Buffer containing 0.2% Lubrol PX. It was then washed with 30 volumes of Base Buffer containing 60 mM imidazole pH 7.5 at 4° C. The protein was eluated with 5 volumes of 25 mM Tris-Cl, 300 mM NaCl, 200 mM imidazole, 10 mM 2-mercaptoethanol, pH 7.5 at 4° C. by tumbling resin with buffer end-over-end, 30 min., 4° C. The resin was captured on a 0.2 μm membrane disposable filter unit (Millipore SCGP U02 RE) and the eluate collected in the reservoir. The eluate was concentrated using a 30 k MWCO centrifugal filter device (Sartorius Vivascience Vivacell 100, VC1022), to 20 ml. It was then dialyzed overnight at 4° C., two times against 2 L of 10% glycerol, 25 mM Tris-Cl, 300 mM NaCl, 0.2 mM EDTA, 0.2 mM DTT, pH 7.5 at 4° C. The protein was filtered using a 0.22 μm disposable filter unit (Millipore SCGP00525). The protein concentration was calculated from absorbance at 280 nm, using 280=0.67 cm-1 mg-1. Yield was 235 mg, total. The protein was stored at −80° C.
Human Hormone-Sensitive Lipase (HSL) Enzyme Inhibition Assay:
HSL enzyme activity was measured by a colorimetric assay using 2,3-dimercapto-1-propanol tributyrate (Aldrich, St. Louis, Mo.) as a substrate. Typically, 1.5 mM 2,3-dimercapto-1-propanol tributyrate (DMPT) in 100 mM MOPS, pH 7.2, 0.2 mg/ml fatty acid-free BSA was prepared by sonication at 4° C. to homogenous suspension. Test compounds (2 mM stock in DMSO) were diluted 3 fold in series in DMSO. Compound solutions were diluted 24 fold in 1.5 mM DMPT containing solution and 18 ul per well was added to 384-well microplates (Corning Costar). Twelve microliters per well of human HSL (15 ug/ml) was added and the reaction mixture was incubated at 37° C. for 20 minutes. Six microliters of 12 mM dithio-bis-(2-nitrobenzoic acid) (DTNB) in DMSO plus 1.2% SDS and 0.6% Triton X-100 were added and the mixture was incubated at room temperature for 15 minutes. Product production was monitored by reading absorbance at 405 nm on an Envision Reader (PerkinElmer Life and Analytical Sciences, Shelton, Conn.).
In the case of `Cc1ccc(S(=O)(=O)N2CCC(F)(C(=O)Nc3ccc(OC(F)(F)F)cc3)CC2)cc1` [Example 18, 4-Fluoro-1-(toluene-4-sulfonyl)-piperidine-4-carboxylic acid (4-trifluoromethoxy-phenyl)-amide], the IC50 is reported as 550 nM.
`Cc1ccc(S(=O)(=O)N2CCC(F)(C(=O)Nc3ccc(OC(C)C)cc3)CC2)cc1` [Example 19, 4-Fluoro-1-(toluene-4-sulfonyl)-piperidine-4-carboxylic acid (4-isopropoxy-phenyl)-amide] gave an IC50 of 740 nM.
`Cc1ccc(S(=O)(=O)N2CCC(C(=O)Nc3ccc(OCC4CC4)cc3)CC2)cc1` [Example 20, 1-(Toluene-4-sulfonyl)-piperidine-4-carboxylic acid (4-cyclopropylmethoxy-phenyl)-amide] gave an IC50 of 170 nM.
With `CC(C)(C)CC(=O)N1CCC(C(=O)Nc2ccc(OC(F)(F)F)cc2)CC1` [Example 21, 1-(3,3-Dimethyl-butyryl)-piperidine-4-carboxylic acid (4-trifluoromethoxy-phenyl)-amide] the IC50 was 200 nM.
`Cc1ccc(S(=O)(=O)N2CCC(C(=O)Nc3ccc(CCO)cc3)CC2)cc1` [Example 22, 1-(Toluene-4-sulfonyl)-piperidine-4-carboxylic acid [4-(2-hydroxy-ethyl)-phenyl]-amide] was tested, and the IC50 was 700 nM.
In the case of `O=C(Nc1ccc(OC(F)(F)F)cc1)C1(CO)CCN(S(=O)(=O)c2ccccc2)CC1` [Example 26, 1-Benzenesulfonyl-4-hydroxymethyl-piperidine-4-carboxylic acid (4-trifluoromethoxy-phenyl)-amide], the IC50 is reported as 220 nM.
Work on `O=C(Nc1ccc(OC(F)(F)F)cc1)C1(CO)CCN(S(=O)(=O)c2ccccc2Cl)CC1` [Example 28, 1-(2-Chloro-benzenesulfonyl)-4-hydroxymethyl-piperidine-4-carboxylic acid (4-trifluoromethoxy-phenyl)-amide] yielded an IC50 of 660 nM.
Compound `COc1ccc(S(=O)(=O)N2CCC(F)(C(=O)Nc3ccc(OC(F)(F)F)cc3)CC2)cc1` [Example 29, 4-Fluoro-1-(4-methoxy-benzenesulfonyl)-piperidine-4-carboxylic acid (4-trifluoromethoxy-phenyl)-amide] has an IC50 of 280 nM.
In the case of `O=C(Nc1ccc(OC(F)(F)F)cc1)C1(F)CCN(S(=O)(=O)c2ccccc2Cl)CC1` [Example 30, 1-(2-Chloro-benzenesulfonyl)-4-fluoro-piperidine-4-carboxylic acid (4-trifluoromethoxy-phenyl)-amide], the IC50 is reported as 180 nM.
In the case of `Cc1ccc(S(=O)(=O)N2CCC(C)(C(=O)Nc3ccc(OC(F)(F)F)cc3)CC2)cc1` [Example 31, 4-Methyl-1-(toluene-4-sulfonyl)-piperidine-4-carboxylic acid (4-trifluoromethoxy-phenyl)-amide], the IC50 is reported as 480 nM.
With `Cc1ccc(S(=O)(=O)N2CCC(C(=O)Nc3ccc(OC(C)(C)C(F)(F)F)cc3)CC2)cc1` [Example 33, 1-(Toluene-4-sulfonyl)-piperidine-4-carboxylic acid [4-(2,2,2-trifluoro-1,1-dimethyl-ethoxy)-phenyl]-amide] the IC50 was 130 nM.
`CCn1nc(NC(=O)C2CCN(S(=O)(=O)c3ccccc3)CC2)cc1C(F)(F)F` [Example 35, 1-Benzenesulfonyl-piperidine-4-carboxylic acid (1-ethyl-5-trifluoromethyl-1H-pyrazol-3-yl)-amide] gave an IC50 of 1130 nM.
`O=C(Nc1ccc(OC(F)(F)F)cc1)C1CCN(S(=O)(=O)N2CCOCC2)CC1` [Example 37, 1-(Morpholine-4-sulfonyl)-piperidine-4-carboxylic acid (4-trifluoromethoxy-phenyl)-amide] gave an IC50 of 600 nM.
In the case of `O=C(Nc1ccc(OC(F)(F)F)cc1)C1CCN(S(=O)(=O)c2ccccc2Cl)CC1` [Example 38, 1-(2-Chloro-benzenesulfonyl)-piperidine-4-carboxylic acid (4-trifluoromethoxy-phenyl)-amide], the IC50 is reported as 20 nM.
With `CC(C)Oc1ccc(NC(=O)C2CCN(S(=O)(=O)c3ccccc3Cl)CC2)cc1` [Example 39, 1-(2-Chloro-benzenesulfonyl)-piperidine-4-carboxylic acid (4-isopropoxy-phenyl)-amide] the IC50 was 40 nM.
With `Cc1ccc(S(=O)(=O)N2CCC(F)(C(=O)Nc3ccc(C(C)C)cc3)CC2)cc1` [Example 41, 4-Fluoro-1-(toluene-4-sulfonyl)-piperidine-4-carboxylic acid (4-isopropyl-phenyl)-amide] the IC50 was 320 nM.
With `O=C(Nc1ccc(OC(F)(F)F)cc1)C1CCN(S(=O)(=O)c2ccccc2)CC1` [Example 46, 1-Benzenesulfonyl-piperidine-4-carboxylic acid (4-trifluoromethoxy-phenyl)-amide] the IC50 was 40 nM.
Work on `CC(C)Oc1ccc(NC(=O)C2CCN(S(=O)(=O)c3ccccc3)CC2)cc1` [Example 47, 1-Benzenesulfonyl-piperidine-4-carboxylic acid (4-isopropoxy-phenyl)-amide] yielded an IC50 of 70 nM.
`COc1ccc(S(=O)(=O)N2CCC(C(=O)Nc3ccc(OC(F)(F)F)cc3)CC2)cc1` [Example 48, 1-(4-Methoxy-benzenesulfonyl)-piperidine-4-carboxylic acid (4-trifluoromethoxy-phenyl)-amide] showed an IC50 of 40 nM.
Work on `COc1ccc(S(=O)(=O)N2CCC(C(=O)Nc3ccc(OC(C)C)cc3)CC2)cc1` [Example 49, 1-(4-Methoxy-benzenesulfonyl)-piperidine-4-carboxylic acid (4-isopropoxy-phenyl)-amide] yielded an IC50 of 90 nM.
For `Cc1ccc(S(=O)(=O)N2CCC(CO)(C(=O)Nc3ccc(OC(F)(F)F)cc3)CC2)cc1` [Example 51], the IC50 was 330 nM.
